# Tests used:
# Format in all cases: functional
# Streptococcus agalactiae [1] = test: Tested in vitro for minimum inhibitory concentration to produce antibacterial activity against Streptococcus agalactiae CMX 508
# Staphylococcus aureus [2] = test: Tested in vitro for minimum inhibitory concentration to produce antibacterial activity against Staphylococcus aureus NCTC-10649M in presence of erythromycin A
# Staphylococcus aureus [3] = test: Tested in vitro for minimum inhibitory concentration to produce antibacterial activity against Staphylococcus aureus NCTC-10649M
# Enterococcus faecium [4] = test: Tested in vitro for minimum inhibitory concentration to produce antibacterial activity against Enterococcus faecium ATCC 8043 in presence of erythromycin A
# Streptococcus pyogenes [5] = test: Tested in vitro for minimum inhibitory concentration to produce antibacterial activity against Streptococcus pyogenes EES61 in presence of erythromycin A
# Staphylococcus aureus [6] = test: Tested in vitro for minimum inhibitory concentration to produce antibacterial activity against Staphylococcus aureus A5177 in presence of erythromycin A
# Streptococcus pyogenes [7] = test: Tested in vitro for minimum inhibitory concentration to produce antibacterial activity against Streptococcus pyogenes EES61
# Staphylococcus aureus [8] = test: Tested in vitro for minimum inhibitory concentration to produce antibacterial activity against Staphylococcus aureus ATCC 6538P in presence of erythromycin A
# Streptococcus agalactiae [9] = test: Tested in vitro for minimum inhibitory concentration to produce antibacterial activity against Streptococcus agalactiae CMX 508 in presence of erythromycin A
# [10] = test system: Staphylococcus epidermidis; test: Tested in vitro for minimum inhibitory concentration to produce antibacterial activity against Staphylococcus epidermidis 3519
# Streptococcus pyogenes [11] = test: Tested in vitro for minimum inhibitory concentration to produce antibacterial activity against Streptococcus pyogenes PIU 2548 in presence of erythromycin A
# Staphylococcus aureus [12] = test: Tested in vitro for minimum inhibitory concentration to produce antibacterial activity against Staphylococcus aureus A-5278 in presence of erythromycin A
# Escherichia coli [13] = test: Tested in vitro for minimum inhibitory concentration to produce antibacterial activity against Escherichia coli JUHL in presence of erythromycin A
# Streptococcus equinus [14] = test: Tested in vitro for minimum inhibitory concentration to produce antibacterial activity against Streptococcus bovis A-5169 in presence of erythromycin A
# Staphylococcus aureus [15] = test: Tested in vitro for minimum inhibitory concentration to produce antibacterial activity against Staphylococcus aureus 1775
# Staphylococcus aureus [16] = test: Tested in vitro for minimum inhibitory concentration to produce antibacterial activity against Staphylococcus aureus CMX 553 in presence of erythromycin A
# Staphylococcus aureus [17] = test: Tested in vitro for minimum inhibitory concentration to produce antibacterial activity against Staphylococcus aureus A5177
# Staphylococcus aureus [18] = test: Tested in vitro for minimum inhibitory concentration to produce antibacterial activity against Staphylococcus aureus A-5278
# Escherichia coli [19] = test: Tested in vitro for minimum inhibitory concentration to produce antibacterial activity against Escherichia coli SS in presence of erythromycin A
# Streptococcus equinus [20] = test: Tested in vitro for minimum inhibitory concentration to produce antibacterial activity against Streptococcus bovis A-5169
# Staphylococcus aureus [21] = test: Tested in vitro for minimum inhibitory concentration to produce antibacterial activity against Staphylococcus aureus 1775 in presence of erythromycin A
# Streptococcus pyogenes [22] = test: Tested in vitro for minimum inhibitory concentration to produce antibacterial activity against Streptococcus pyogenes PIU 2548
# [23] = test system: Staphylococcus epidermidis; test: Tested in vitro for minimum inhibitory concentration to produce antibacterial activity against Staphylococcus epidermidis 3519 in presence of erythromycin A
# Escherichia coli [24] = test: Tested in vitro for minimum inhibitory concentration to produce antibacterial activity against Escherichia coli SS
# Enterococcus faecium [25] = test: Tested in vitro for minimum inhibitory concentration to produce antibacterial activity against Enterococcus faecium ATCC 8043
# Escherichia coli [26] = test: Tested in vitro for minimum inhibitory concentration to produce antibacterial activity against Escherichia coli JUHL
# Staphylococcus aureus [27] = test: Tested in vitro for minimum inhibitory concentration to produce antibacterial activity against Staphylococcus aureus ATCC 6538P
# Streptococcus pyogenes [28] = test: Tested in vitro for minimum inhibitory concentration to produce antibacterial activity against Streptococcus pyogenes 930 in presence of erythromycin A
# Staphylococcus aureus [29] = test: Tested in vitro for minimum inhibitory concentration to produce antibacterial activity against Staphylococcus aureus CMX 553
# Staphylococcus aureus [30] = test: Tested in vitro for minimum inhibitory concentration to produce antibacterial activity against Staphylococcus aureus CMX 642A
# Staphylococcus aureus [31] = test: Tested in vitro for minimum inhibitory concentration to produce antibacterial activity against Staphylococcus aureus CMX 642A in presence of erythromycin A
# Streptococcus pyogenes [32] = test: Tested in vitro for minimum inhibitory concentration to produce antibacterial activity against Streptococcus pyogenes 930
MIC (Streptococcus agalactiae [1]),MIC (Staphylococcus aureus [2]),MIC (Staphylococcus aureus [3]),MIC (Enterococcus faecium [4]),MIC (Streptococcus pyogenes [5]),MIC (Staphylococcus aureus [6]),MIC (Streptococcus pyogenes [7]),MIC (Staphylococcus aureus [8]),MIC (Streptococcus agalactiae [9]),MIC [10],MIC (Streptococcus pyogenes [11]),MIC (Staphylococcus aureus [12]),MIC (Escherichia coli [13]),MIC (Streptococcus equinus [14]),MIC (Staphylococcus aureus [15]),MIC (Staphylococcus aureus [16]),MIC (Staphylococcus aureus [17]),MIC (Staphylococcus aureus [18]),MIC (Escherichia coli [19]),MIC (Streptococcus equinus [20]),Compound,further results
0.78 µg/mL,0.2 µg/mL,12.5 µg/mL,0.05 µg/mL,0.02 µg/mL,3.1 µg/mL,0.78 µg/mL,0.2 µg/mL,0.02 µg/mL,25 µg/mL,6.2 µg/mL,> 100 µg/mL,50 µg/mL,0.02 µg/mL,> 100 µg/mL,0.2 µg/mL,25 µg/mL,> 100 µg/mL,0.2 µg/mL,0.39 µg/mL,CC[C@H]1OC(=O)[C@H](C)[C@@H](OC(=S)SC)[C@H](C)[C@@H](O[C@@H]2O[C@H](C)C[C@H](N(C)C)[C@H]2O)[C@](C)(OC)C[C@@H](C)C(=O)[C@H](C)[C@@H](O)[C@]1(C)O,MIC (Staphylococcus aureus [21]): > 100 µg/mL; MIC (Streptococcus pyogenes [22]): 1.56 µg/mL; MIC [23]: 0.2 µg/mL; MIC (Escherichia coli [24]): 0.39 µg/mL; MIC (Enterococcus faecium [25]): 6.2 µg/mL; MIC (Escherichia coli [26]): > 100 µg/mL; MIC (Staphylococcus aureus [27]): 25 µg/mL; MIC (Streptococcus pyogenes [28]): > 100 µg/mL; MIC (Staphylococcus aureus [29]): 25 µg/mL; MIC (Staphylococcus aureus [30]): 25 µg/mL; MIC (Staphylococcus aureus [31]): 0.2 µg/mL; MIC (Streptococcus pyogenes [32]): 100 µg/mL
3.1 µg/mL,0.39 µg/mL,12.5 µg/mL,0.05 µg/mL,0.02 µg/mL,3.1 µg/mL,3.1 µg/mL,0.39 µg/mL,0.1 µg/mL,25 µg/mL,3.1 µg/mL,> 100 µg/mL,25 µg/mL,0.01 µg/mL,> 100 µg/mL,0.39 µg/mL,25 µg/mL,> 100 µg/mL,0.2 µg/mL,3.1 µg/mL,CCO/N=C1\[C@H](C)C[C@@](C)(OC)[C@H](O[C@@H]2O[C@H](C)C[C@H](N(C)C)[C@H]2O)[C@@H](C)C[C@@H](C)C(=O)O[C@H](CC)[C@@](C)(O)[C@H](O)[C@H]1C,MIC (Staphylococcus aureus [21]): > 100 µg/mL; MIC (Streptococcus pyogenes [22]): 25 µg/mL; MIC [23]: 0.39 µg/mL; MIC (Escherichia coli [24]): 3.1 µg/mL; MIC (Enterococcus faecium [25]): 25 µg/mL; MIC (Escherichia coli [26]): > 100 µg/mL; MIC (Staphylococcus aureus [27]): 25 µg/mL; MIC (Streptococcus pyogenes [28]): > 100 µg/mL; MIC (Staphylococcus aureus [29]): 50 µg/mL; MIC (Staphylococcus aureus [30]): 50 µg/mL; MIC (Staphylococcus aureus [31]): 0.39 µg/mL; MIC (Streptococcus pyogenes [32]): > 100 µg/mL
25 µg/mL,0.39 µg/mL,> 100 µg/mL,0.2 µg/mL,0.01 µg/mL,3.1 µg/mL,12.5 µg/mL,0.39 µg/mL,0.02 µg/mL,> 100 µg/mL,12.5 µg/mL,> 100 µg/mL,50 µg/mL,0.2 µg/mL,> 100 µg/mL,0.39 µg/mL,> 100 µg/mL,> 100 µg/mL,0.78 µg/mL,> 100 µg/mL,CC[C@H]1OC(=O)[C@H](C)C[C@H](C)[C@@H](O[C@@H]2O[C@H](C)C[C@H](N(C)C)[C@H]2O)[C@](C)(OC)C[C@@H](C)C(=O)/C(C)=C/[C@]1(C)O,MIC (Staphylococcus aureus [21]): > 100 µg/mL; MIC (Streptococcus pyogenes [22]): > 100 µg/mL; MIC [23]: 0.39 µg/mL; MIC (Escherichia coli [24]): > 100 µg/mL; MIC (Enterococcus faecium [25]): > 100 µg/mL; MIC (Escherichia coli [26]): > 100 µg/mL; MIC (Staphylococcus aureus [27]): > 100 µg/mL; MIC (Streptococcus pyogenes [28]): 12.5 µg/mL; MIC (Staphylococcus aureus [29]): > 100 µg/mL; MIC (Staphylococcus aureus [30]): > 100 µg/mL; MIC (Staphylococcus aureus [31]): 0.39 µg/mL; MIC (Streptococcus pyogenes [32]): > 100 µg/mL

Compound,MIC (Streptococcus agalactiae [1]),MIC (Staphylococcus aureus [2]),MIC (Staphylococcus aureus [3]),MIC (Enterococcus faecium [4]),MIC (Streptococcus pyogenes [5]),MIC (Staphylococcus aureus [6]),MIC (Streptococcus pyogenes [7]),MIC (Staphylococcus aureus [8]),MIC (Streptococcus agalactiae [9]),MIC [10],MIC (Streptococcus pyogenes [11]),MIC (Staphylococcus aureus [12]),MIC (Escherichia coli [13]),MIC (Streptococcus equinus [14]),MIC (Staphylococcus aureus [15]),MIC (Staphylococcus aureus [16]),MIC (Staphylococcus aureus [17]),MIC (Staphylococcus aureus [18]),MIC (Escherichia coli [19]),MIC (Streptococcus equinus [20]),further results
CC[C@H]1OC(=O)[C@H](C)[C@@H](O[C@H]2C[C@@](C)(OC)[C@@H](O)[C@H](C)O2)[C@H](C)[C@@H](O[C@@H]2O[C@H](C)C[C@H](N(C)C)[C@H]2O)[C@](C)(OC)C[C@@H](C)C(=O)[C@H](C)[C@@H](O)[C@]1(C)O [CLARITHROMYCIN],0.02 µg/mL,0.03 µg/mL,0.03 µg/mL,0.05 µg/mL,0.01 µg/mL,3.1 µg/mL,0.01 µg/mL,0.2 µg/mL,0.02 µg/mL,0.12 µg/mL,8 µg/mL,> 100 µg/mL,50 µg/mL,0.01 µg/mL,> 100 µg/mL,0.12 µg/mL,1.56 µg/mL,> 100 µg/mL,0.39 µg/mL,0.01 µg/mL,MIC (Staphylococcus aureus [21]): > 100 µg/mL; MIC (Streptococcus pyogenes [22]): 8 µg/mL; MIC [23]: 0.03 µg/mL; MIC (Escherichia coli [24]): 0.39 µg/mL; MIC (Enterococcus faecium [25]): 0.05 µg/mL; MIC (Escherichia coli [26]): 100 µg/mL; MIC (Staphylococcus aureus [27]): 0.2 µg/mL; MIC (Streptococcus pyogenes [28]): > 100 µg/mL; MIC (Staphylococcus aureus [29]): 0.12 µg/mL; MIC (Staphylococcus aureus [30]): 0.03 µg/mL; MIC (Staphylococcus aureus [31]): 0.03 µg/mL; MIC (Streptococcus pyogenes [32]): > 100 µg/mL

# Reference: ChEMBL document CHEMBL1152085, “Novel 3-deoxy-3-descladinosyl-6-O-methyl erythromycin a analogues. Synthesis and in vitro activity” (1997)
